US20220298163A1, “BTK INHIBITORS WITH IMPROVED DUAL SELECTIVITY” (BEIGENE, LTD., priority 2017, published 2022)

Legend:
EGFR = EGFR (Homo sapiens, UniProt P00533); assay: Biochemical kinase selectivity: IC50 determination of EGFR; conditions: for IC50: TR-FRET, 20 μM ATP; for Fold of EGFR/Btk: ratio of IC50 values
Tec = biological target: T1, Tec (Homo sapiens, UniProt P42680); assay: Biochemical kinase selectivity: IC50 determination of Tec; conditions: for IC50: TR-FRET, 280 μM ATP; for Fold of Tec/Btk: ratio of IC50 values
T1 sequence (P42680 1-631): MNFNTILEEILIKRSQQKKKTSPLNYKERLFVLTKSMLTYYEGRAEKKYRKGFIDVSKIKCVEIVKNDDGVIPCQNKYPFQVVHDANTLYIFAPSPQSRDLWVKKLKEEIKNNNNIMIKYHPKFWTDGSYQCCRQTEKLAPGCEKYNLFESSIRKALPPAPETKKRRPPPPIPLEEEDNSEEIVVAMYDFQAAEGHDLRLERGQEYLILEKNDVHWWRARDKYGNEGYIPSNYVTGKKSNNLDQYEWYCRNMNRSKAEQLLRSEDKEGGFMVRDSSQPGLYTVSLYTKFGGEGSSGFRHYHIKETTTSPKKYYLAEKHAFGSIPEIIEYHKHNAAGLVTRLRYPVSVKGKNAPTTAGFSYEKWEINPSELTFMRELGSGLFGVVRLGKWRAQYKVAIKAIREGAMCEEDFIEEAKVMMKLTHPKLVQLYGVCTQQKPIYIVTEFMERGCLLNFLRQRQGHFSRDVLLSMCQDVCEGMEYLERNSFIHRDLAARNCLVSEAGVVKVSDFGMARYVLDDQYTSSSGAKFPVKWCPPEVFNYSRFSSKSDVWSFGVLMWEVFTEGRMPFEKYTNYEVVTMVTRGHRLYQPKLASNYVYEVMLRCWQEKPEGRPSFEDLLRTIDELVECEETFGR

[1] = biological target: T2, phosphorylated Btk at Tyr223 (Homo sapiens, UniProt Q06187); assay: Btk pY223 cellular assay (HTRF, Ramos cells); type: cell-based; conditions: compound 3 hours, pervanadate or Na3VO4 stimulation, read-out: IC50 (nM) in cell Btk pY223
T2 construct: determine the endogenous levels of phosphorylated Btk at Tyr223; endogenous in cells; host or cells: Ramos cells (CRL-1596, ATCC)
Experimental: Btk pY223 cellular assay is an HTRF based assay intended to determine the endogenous levels of phosphorylated Btk at Tyr223.
Briefly, Ramos cells were serum starved in 0.5% FBS-containing RPMI1640 overnight. The cells were then incubated with interested compounds at various concentrations in a CO2 incubator for 3 hours. After the incubation, cells were stimulated with 1 mM pervanadate (PV) or Na3VO4 (OV) for 20 min. Then, the cells were collected and lysed with 1× lysis buffer at RT for 10 min (4× lysis buffer supplied in the kit). 1× antibody mix was prepared by diluting anti-Btk-d2 and anti-pBtk-K in detection buffer (supplied in the kit). […] After mixing gently and spinning briefly, the plate was sealed up and kept in dark at RT for 18 hours. […] IC50 values were calculated with GraphPad Prism software using the sigmoidal dose-response function.

[2] = biological target: T3, Btk kinase (aa2-659, Carna Biosciences) (Homo sapiens, UniProt Q06187); assay: Btk kinase enzymatic assay (TR-FRET); type: biochemical; conditions: for IC50: TR-FRET, 30 μM ATP, compound incubated with kinase 60 minutes
T3 construct: purchased Carna Biosciences
T3 sequence (Q06187 2-659): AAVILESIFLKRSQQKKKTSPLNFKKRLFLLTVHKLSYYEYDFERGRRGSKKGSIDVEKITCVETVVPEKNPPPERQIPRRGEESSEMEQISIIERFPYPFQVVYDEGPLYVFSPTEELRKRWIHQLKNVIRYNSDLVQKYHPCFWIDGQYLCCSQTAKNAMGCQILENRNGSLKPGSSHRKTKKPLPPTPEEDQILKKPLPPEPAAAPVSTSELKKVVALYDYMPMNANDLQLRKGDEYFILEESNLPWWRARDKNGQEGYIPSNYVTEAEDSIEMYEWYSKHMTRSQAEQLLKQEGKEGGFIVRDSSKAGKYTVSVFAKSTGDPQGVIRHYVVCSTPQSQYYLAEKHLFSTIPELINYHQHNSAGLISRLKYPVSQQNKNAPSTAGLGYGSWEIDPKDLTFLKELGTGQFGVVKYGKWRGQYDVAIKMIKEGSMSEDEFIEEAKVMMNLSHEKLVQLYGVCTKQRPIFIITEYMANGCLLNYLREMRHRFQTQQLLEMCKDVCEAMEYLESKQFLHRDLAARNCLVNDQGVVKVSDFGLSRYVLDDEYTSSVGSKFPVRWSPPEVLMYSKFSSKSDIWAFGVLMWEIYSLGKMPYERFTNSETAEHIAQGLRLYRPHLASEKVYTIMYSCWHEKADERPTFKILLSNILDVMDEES

T2 sequence (Q06187 whole entry): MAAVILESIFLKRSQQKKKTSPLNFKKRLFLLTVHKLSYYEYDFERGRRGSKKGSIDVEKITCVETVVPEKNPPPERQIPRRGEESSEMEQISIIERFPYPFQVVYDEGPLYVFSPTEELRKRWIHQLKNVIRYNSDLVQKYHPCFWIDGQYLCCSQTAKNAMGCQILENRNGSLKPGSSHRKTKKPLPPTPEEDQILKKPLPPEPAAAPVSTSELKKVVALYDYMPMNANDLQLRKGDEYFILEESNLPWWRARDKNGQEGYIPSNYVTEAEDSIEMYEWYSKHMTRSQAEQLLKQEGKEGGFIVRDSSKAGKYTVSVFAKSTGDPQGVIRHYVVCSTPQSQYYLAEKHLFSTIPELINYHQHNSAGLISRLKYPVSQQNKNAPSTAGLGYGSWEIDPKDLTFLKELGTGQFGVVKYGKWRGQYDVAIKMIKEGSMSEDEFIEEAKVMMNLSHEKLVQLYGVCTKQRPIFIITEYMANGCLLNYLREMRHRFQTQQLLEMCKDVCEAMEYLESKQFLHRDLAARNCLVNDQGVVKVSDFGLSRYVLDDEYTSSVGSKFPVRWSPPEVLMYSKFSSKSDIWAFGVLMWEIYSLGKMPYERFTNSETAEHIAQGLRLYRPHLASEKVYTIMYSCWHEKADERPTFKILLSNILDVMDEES
Sequence of EGFR (P00533 25-1210): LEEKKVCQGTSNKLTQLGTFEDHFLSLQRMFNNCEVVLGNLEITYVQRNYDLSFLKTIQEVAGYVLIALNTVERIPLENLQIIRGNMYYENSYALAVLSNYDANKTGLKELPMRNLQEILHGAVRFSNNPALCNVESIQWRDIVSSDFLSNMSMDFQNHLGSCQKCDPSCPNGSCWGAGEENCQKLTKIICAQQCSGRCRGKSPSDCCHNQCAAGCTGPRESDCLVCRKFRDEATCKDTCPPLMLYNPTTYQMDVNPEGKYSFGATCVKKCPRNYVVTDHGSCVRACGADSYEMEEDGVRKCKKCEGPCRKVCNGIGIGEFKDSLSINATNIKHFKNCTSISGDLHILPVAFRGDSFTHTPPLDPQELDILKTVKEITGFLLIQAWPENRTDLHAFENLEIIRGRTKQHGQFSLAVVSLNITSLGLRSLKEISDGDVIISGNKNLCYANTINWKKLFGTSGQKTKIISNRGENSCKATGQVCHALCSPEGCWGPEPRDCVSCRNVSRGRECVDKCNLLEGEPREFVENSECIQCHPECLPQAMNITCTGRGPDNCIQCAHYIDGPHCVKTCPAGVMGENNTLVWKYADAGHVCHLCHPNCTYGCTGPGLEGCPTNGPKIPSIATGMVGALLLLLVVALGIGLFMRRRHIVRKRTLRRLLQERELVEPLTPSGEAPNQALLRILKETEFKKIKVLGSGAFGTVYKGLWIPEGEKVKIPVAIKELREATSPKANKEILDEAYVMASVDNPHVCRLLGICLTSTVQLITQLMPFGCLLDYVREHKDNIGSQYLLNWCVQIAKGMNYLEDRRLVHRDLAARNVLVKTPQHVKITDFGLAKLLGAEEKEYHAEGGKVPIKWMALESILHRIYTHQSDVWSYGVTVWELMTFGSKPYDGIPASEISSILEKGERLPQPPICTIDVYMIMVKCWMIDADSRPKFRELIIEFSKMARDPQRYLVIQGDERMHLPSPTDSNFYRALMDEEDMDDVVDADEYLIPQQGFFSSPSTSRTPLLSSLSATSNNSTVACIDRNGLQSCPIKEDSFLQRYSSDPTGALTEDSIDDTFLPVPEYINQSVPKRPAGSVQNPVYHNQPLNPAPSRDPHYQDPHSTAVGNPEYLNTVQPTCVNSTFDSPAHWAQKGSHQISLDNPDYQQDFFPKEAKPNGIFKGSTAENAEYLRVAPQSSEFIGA

Compound | IC50 (EGFR) [nM] | IC50 (Tec) [nM] | IC50 [1] [nM] | Fold of EGFR/Btk (EGFR) [fold] | Fold of Tec/Btk (Tec) [fold] | affinity / inhibitory activity for Btk (in words) [2] | selectivity of Btk over Tec (in words) (Tec) | IC50 [2] [nM]
C=CC(=O)Nc1ccccc1C1CCNc2c(C(N)=O)c(-c3cc(Cl)c(OC)c(Cl)c3)nn21 (centres unmarked) [169^#] | 0.54 | 37 | 28.2 |  |  |  |  | 
C=CC(=O)Nc1ccccc1C1CCNc2c(C(N)=O)c(-c3cc(F)c(F)c(Cl)c3)nn21 (centres unmarked) [Example 158, reference compound] | 0.49 | 56 |  | 0.2 | 19 |  |  | 
C=CC(=O)N1CCC(C2CCNc3c(C(N)=O)c(-c4ccc(C)c(OC)c4)nn32)CC1 (centres unmarked) [Example 174, reference compound] | 281 | 64 |  | 58.5 | 13 | low affinity for Btk | almost no selectivity against Tec | 
C=CC(=O)N1CCC(C2CCNc3c(C(N)=O)c(-c4cc(Cl)c(C)c(Cl)c4)nn32)CC1 (centres unmarked) [Example A7, 7-(1-acryloylpiperidin-4-yl)-2-(3,5-dichloro-4-methylphenyl)-4,5,6,7-tetrahydropyrazolo[1,5-a]pyrimidine-3-carboxamide] | 1190 | 254 | 148 | 289 | 62 |  |  | 4.1
C=CC(=O)N1CCC(C2CCNc3c(C(N)=O)c(-c4cc(OC)c(I)c(OC)c4)nn32)CC1 (centres unmarked) [Example A8, 7-(1-acryloylpiperidin-4-yl)-2-(4-iodo-3,5-dimethoxyphenyl)-4,5, tetrahydropyrazolo[1,5-a]pyrimidine-3-carboxamide] | 1380 | 130 | 14.8 |  |  |  |  | 0.93
C=CC(=O)N1CCC(C2CCNc3c(C(N)=O)c(-c4cc(OC)c(C)c(OCC)c4)nn32)CC1 (centres unmarked) [Example A12, 7-(1-acryloylpiperidin-4-yl)-2-(3-ethoxy-5-methoxy-4-methylphenyl)-4,5,6,7-tetrahydropyrazolo[1,5-a]pyrimidine-3-carboxamide] | > 10000 | 289 | 37.3 |  | 61 |  |  | 4.7
C=CC(=O)N1CCC(C2CCNc3c(C(N)=O)c(-c4cc(Br)c(C)c(Br)c4)nn32)CC1 (centres unmarked) [Example A16, 7-(1-acryloylpiperidin-4-yl)-2-(3,5-dibromo-4-methylphenyl)-4,5,6,7-tetrahydropyrazolo[1,5-a]pyrimidine-3-carboxamide] | 2370 | 556 |  | 333 | 78 |  |  | 7.1
C=CC(=O)N1CCC(C2CCNc3c(C(N)=O)c(-c4cc(OC)c(-c5ccco5)c(OC)c4)nn32)CC1 (centres unmarked) [Example A19, 7-(1-acryloylpiperidin-4-yl)-2-(4-(furan-2-yl)-3,5-dimethoxyphenyl)-4,5,6,7-tetrahydropyrazolo[1,5-a]pyrimidine-3-carboxamide] | > 10000 | 455 |  |  | 63.2 |  |  | 7.2
C=CC(=O)N1CCC(C2CCNc3c(C(N)=O)c(-c4cc(C)c(Br)c(C)c4)nn32)CC1 (centres unmarked) [Example A20, 7-(1-acryloylpiperidin-4-yl)-2-(4-bromo-3,5-dimethylphenyl)-4,5,6,7-tetrahydropyrazolo[1,5-a]pyrimidine-3-carboxamide] | 496 | 352 | 143 | 150 | 107 | high affinity for Btk |  | 3.3
C=CC(=O)N1CCC(C2CCNc3c(C(N)=O)c(-c4cc(OC)c(C5CC5)c(OCC)c4)nn32)CC1 (centres unmarked) [Example A33, 7-(1-acryloylpiperidin-4-yl)-2-(4-cyclopropyl-3-ethoxy-5-methoxyphenyl)-4,5,6,7-tetrahydropyrazolo[1,5-a]pyrimidine-3-carboxamide] | 9390 | 499 | 42.9 | 3479 | 185 | high affinity for Btk |  | 2.7
C=CC(=O)N1CCC(C2CCNc3c(C(N)=O)c(-c4cc(C)c(C)c(OC)c4)nn32)CC1 (centres unmarked) [Example A34, 7-(1-acryloylpiperidin-4-yl)-2-(3-methoxy-4,5-dimethylphenyl)-4,5,6,7-tetrahydropyrazolo[1,5-a]pyrimidine-3-carboxamide] | 405 | 207 | 41.8 | 225 | 115 | high affinity for Btk |  | 1.8
C=CC(=O)N1CCC(C2CCNc3c(C(N)=O)c(-c4cc(Cl)c(C)c(OC)c4)nn32)CC1 (centres unmarked) [Example A35, 7-(1-acryloylpiperidin-4-yl)-2-(3-chloro-5-methoxy-4-methylphenyl)-4,5,6,7-tetrahydropyrazolo[1,5-a]pyrimidine-3-carboxamide] | 1150 | 174 | 65 | 500 | 75.6 |  |  | 2.3
C=CC(=O)N1CCC(C2CCNc3c(C(N)=O)c(-c4cc(Cl)c(C5CC5)c(OC)c4)nn32)CC1 (centres unmarked) [Example A36, 7-(1-acryloylpiperidin-4-yl)-2-(3-chloro-4-cyclopropyl-5-methoxyphenyl)-4,5,6,7-tetrahydropyrazolo[1,5-a]pyrimidine-3-carboxamide] | 2570 | 137 | 50.5 | 2339 | 125 | high affinity for Btk |  | 1.1
C=CC(=O)N1CCC(C2CCNc3c(C(N)=O)c(-c4cc(OC)c(C(F)(F)F)c(OC)c4)nn32)CC1 (centres unmarked) [Example A38, 7-(1-acryloylpiperidin-4-yl)-2-(3,5-dimethoxy-4-(trifluoromethyl)phenyl)-4,5,6,7-tetrahydropyrazolo[1,5-a]pyrimidine-3-carboxamide] | 2250 | 264 | 36.7 | 803 | 94 |  |  | 2.8
C=CC(=O)N1CCC(C2CCNc3c(C(N)=O)c(-c4cc(OC)c(C5CCCCC5)c(OC)c4)nn32)CC1 (centres unmarked) [Example A39, 7-(1-acryloylpiperidin-4-yl)-2-(4-cyclohexyl-3,5-dimethoxyphenyl)-4,5,6,7-tetrahydropyrazolo[1,5-a]pyrimidine-3-carboxamide] | 6080 | 102 |  | 894 | 15 |  |  | 6.8
C=CC(=O)N1CCC(C2CCNc3c(C(N)=O)c(-c4cc(OC)c(CCc5ccccc5)c(OC)c4)nn32)CC1 (centres unmarked) [Example A42, 7-(1-acryloylpiperidin-4-yl)-2-(3,5-dimethoxy-4-phenethylphenyl)-4,5,6,7-tetrahydropyrazolo[1,5-a]pyrimidine-3-carboxamide] | 2000 | 53 |  | 668 | 18 |  |  | 3
C=CC(=O)N1CCC(C2CCNc3c(C(N)=O)c(-c4cc(OC)c(C(=C)c5ccccc5)c(OC)c4)nn32)CC1 (centres unmarked) [Example A43, 7-(1-acryloylpiperidin-4-yl)-2-(3,5-dimethoxy-4-(1-phenylvinyl)phenyl)-4,5,6,7-tetrahydropyrazolo[1,5-a]pyrimidine-3-carboxamide] | 6180 | 39 |  | 909 | 5.7 |  |  | 6.8
C=CC(=O)N1CCC(C2CCNc3c(C(N)=O)c(-c4cc(OC)c(C(C)c5ccccc5)c(OC)c4)nn32)CC1 (centres unmarked) [Example A44, 7-(1-acryloylpiperidin-4-yl)-2-(3,5-dimethoxy-4-(1-phenylethyl)phenyl)-4,5,6,7-tetrahydropyrazolo[1,5-a]pyrimidine-3-carboxamide] | 3170 | 35 |  | 647 | 7.1 |  |  | 4.9
C=CC(=O)N1CCC(C2CCNc3c(C(N)=O)c(-c4cc(OC)c(C5CC5)c(OC(C)C)c4)nn32)CC1 (centres unmarked) [Example A45, 7-(1-acryloylpiperidin-4-yl)-2-(4-cyclopropyl-3-isopropoxy-5-methoxyphenyl)-4,5,6,7-tetrahydropyrazolo[1,5-a]pyrimidine-3-carboxamide] | > 10000 | 362 |  |  | 82 |  |  | 4.4
